Read-outs that look alike come from different tables or passages of the source.
Key:
GST-EGFR-KD^WT = molecular target: T1, GST-EGFR-KD^WT (Homo sapiens, UniProt P00533); experiment: EGFR kinase assay (Kinase-Glo); format: biochemical; conditions: 5 μM ATP, read-out: IC50 (concentration at which activity of 50% of EGFR is inhibited)
T1 construct: 50 ng GST-EGFR-KD^WT proteins; made in house

HCC827 cells = experiment: HCC827 cell viability, MTS assay; format: cell-based; conditions: Homo sapiens, 96-h incubation, read-out: IC50 (concentration which causes 50% of the cell death)
GST-EGFR-KD^L858R/T790M = molecular target: T2, GST-EGFR-KD^L858R/T790M (Homo sapiens, UniProt P00533, L858R/T790M); experiment: Double mutant EGFR kinase assay (Kinase-Glo); format: biochemical; conditions: 1 μM ATP, read-out: IC50 (concentration at which activity of 50% of mutant EGFR is inhibited)
T2 construct: residues from 696 to 1022 and with L858R/T790M; made in house; host or cells: Sf9 insect cells (baculovirus)
T2 sequence (P00533 696-1022 T790M/L858R): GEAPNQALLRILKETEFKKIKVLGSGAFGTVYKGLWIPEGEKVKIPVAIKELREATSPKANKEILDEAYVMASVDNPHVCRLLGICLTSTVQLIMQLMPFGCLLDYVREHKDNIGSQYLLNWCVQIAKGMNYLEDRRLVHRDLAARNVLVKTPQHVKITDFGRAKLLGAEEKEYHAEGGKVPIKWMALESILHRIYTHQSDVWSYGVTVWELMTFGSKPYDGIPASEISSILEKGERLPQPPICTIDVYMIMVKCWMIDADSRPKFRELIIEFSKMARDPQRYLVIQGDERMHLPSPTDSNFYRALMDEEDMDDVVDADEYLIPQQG

T1 sequence (P00533 712-979 limits assumed): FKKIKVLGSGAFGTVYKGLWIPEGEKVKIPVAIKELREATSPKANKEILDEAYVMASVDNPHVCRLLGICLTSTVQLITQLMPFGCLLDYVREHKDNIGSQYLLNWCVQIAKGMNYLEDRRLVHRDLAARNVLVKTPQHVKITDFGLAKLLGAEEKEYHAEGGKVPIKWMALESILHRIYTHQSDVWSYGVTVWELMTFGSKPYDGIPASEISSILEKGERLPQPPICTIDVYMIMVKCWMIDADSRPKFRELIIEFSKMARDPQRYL

IC50 (GST-EGFR-KD^WT) | IC50 (GST-EGFR-KD^L858R/T790M) | IC50 (GST-EGFR-KD^WT; range given in mixed units) | Compound | IC50 (HCC827 cells)
< 59 nM | 500 to 2500 nM | – | CCN(CC)C/C=C/C(=O)N1CCc2c(sc3ncnc(N[C@H](C)c4ccccc4)c23)C1 [Compound 190] | 1 to 99 nM
< 59 nM | 500 to 2500 nM | – | CN1CCN(C/C=C/C(=O)N2CCc3c(sc4ncnc(N[C@H](CO)c5ccccc5)c34)C2)CC1 [Compound 67] | 1 to 99 nM
60 to 100 nM | 500 to 2500 nM | – | C=CS(=O)(=O)N1CCc2c(sc3ncnc(N[C@H](CO)c4ccccc4)c23)C1 [Compound 63] | 100 to 300 nM
< 59 nM | 10 to 499 nM | – | C=CC(=O)N1CCc2c(sc3ncnc(N[C@H](CCO)c4ccccc4)c23)C1 [Compound 176] | 1 to 99 nM
< 59 nM | 500 to 2500 nM | – | CNC/C=C/C(=O)N1CCc2c(sc3ncnc(N[C@H](C)c4ccccc4)c23)C1 [Compound 205] | 1 to 99 nM
– | – | 101 to 900 nM | CC(=O)Nc1cccc(-c2c(-c3ccccc3)oc3ncnc(N[C@H](CO)c4ccccc4)c23)c1 [Compound 38] | 100 to 300 nM
– | – | 101 to 900 nM | OC[C@@H](Nc1ncnc2oc(-c3ccccc3)c(-c3ccco3)c12)c1ccccc1 [Compound 40] | 301 to 999 nM
– | – | 101 to 900 nM | CC(C)NC/C=C/C(=O)N1CCc2c(sc3ncnc(N[C@H](C)c4ccccc4)c23)C1 [Compound 204] | 1 to 99 nM

The next lines start with the molecule.

Compound | IC50 (GST-EGFR-KD^WT) | IC50 (GST-EGFR-KD^L858R/T790M) | IC50 (GST-EGFR-KD^WT; range given in mixed units) | IC50 (HCC827 cells)
O=C(/C=C/CN1CCOCC1)N1CCc2c(sc3ncnc(N[C@H](CO)c4ccccc4)c23)C1 [Compound 66] | < 59 nM | 500 to 2500 nM | – | 1 to 99 nM
C=CC(=O)N1CCc2c(sc3ncnc(N[C@H](COCc4cccc(C)c4)c4ccccc4)c23)C1 [Compound 227] | < 59 nM | 10 to 499 nM | – | 1 to 99 nM
C=CC(=O)Nc1cccc(-c2c(-c3ccccc3)oc3ncnc(N[C@H](COC(=O)C=C)c4ccccc4)c23)c1 [Compound 240] | – | 10 to 499 nM | 101 to 900 nM | –
C=CC(=O)N1CCc2c(sc3ncnc(N[C@H](CO)c4ccccc4)c23)C1 [Compound 12, 1-[4-(2-hydroxy-1-phenyl-ethylamino)-5,8-dihydro-6H-9-thia-1,3,7-triaza-fluoren-7-yl]-propenone] | < 59 nM | 10 to 499 nM | – | 1 to 99 nM
O=C(/C=C/CN1CCCCC1)N1CCc2c(sc3ncnc(N[C@H](CO)c4ccccc4)c23)C1 [Compound 65] | < 59 nM | 500 to 2500 nM | – | 1 to 99 nM
C=CC(=O)N1CCc2c(sc3ncnc(N[C@H](COCc4ccccc4)c4ccccc4)c23)C1 [Compound 195] | < 59 nM | 10 to 499 nM | – | 1 to 99 nM
C=CC(=O)N1CCc2c(sc3ncnc(N[C@H](COCc4ccc(C(F)(F)F)cc4)c4ccccc4)c23)C1 [Compound 202] | < 59 nM | 10 to 499 nM | – | 100 to 300 nM
CC[C@@H](Nc1ncnc2sc3c(c12)CCN(C(=O)/C=C/CN(CC)CC)C3)c1ccccc1 [Compound 191] | < 59 nM | 500 to 2500 nM | – | 1 to 99 nM
C=CC(=O)N1CCc2c(sc3ncnc(N[C@H](COC)c4ccccc4)c23)C1 [Compound 185] | < 59 nM | 10 to 499 nM | – | 1 to 99 nM
COc1ccc(-c2c(-c3ccccc3)oc3ncnc(N[C@H](CO)c4ccccc4)c23)cc1 [Compound 35] | – | – | 101 to 900 nM | 100 to 300 nM
CCN(CC)C/C=C/C(=O)N1CCc2c(sc3ncnc(N[C@H](COC)c4ccccc4)c23)C1 [Compound 230] | 60 to 100 nM | – | – | 1 to 99 nM
CC(=O)Nc1ccc(-c2c(-c3ccccc3)oc3ncnc(N[C@H](CO)c4ccccc4)c23)cc1 [Compound 37] | 60 to 100 nM | – | – | 100 to 300 nM
C=CC(=O)Nc1ccc(-c2c(-c3ccccc3)oc3ncnc(N[C@H](C)c4ccccc4)c23)cc1 [Compound 238] | – | – | 101 to 900 nM | 1 to 99 nM
C[C@@H](Nc1ncnc2sc3c(c12)CCN(C(=O)/C=C/CN(C)C)C3)c1ccc(Br)cc1 [Compound 209] | < 59 nM | – | – | 1 to 99 nM

From patent US8507502B2, “Fused bicyclic and tricyclic pyrimidine compounds as tyrosine kinase inhibitors” (National Health Research Institutes, priority 2008, dated 2013)
